Measurements as given in ChEMBL document CHEMBL2412960, “Inhibition of Mycobacterium tuberculosis strains H37Rv and MDR MS-115 by a new set of C5 modified pyrimidine nucleosides” (Bioorg Med Chem, 2013).
In brackets after ≈: the same amount, converted by molar mass. Activity calls are given as the source filed them. The calls are words filed in the database; no cut-off is given here.

What was measured:
[1] = Cytotoxicity against human Jurkat cells after 72 hrs by MTT assay; type: cell-based; conditions: read-out: CD50
[2] = tested on: Mycobacterium tuberculosis; assay: Bacteriostatic activity against Mycobacterium tuberculosis H37Rv assessed as growth inhibition; type: functional
[3] = Cytotoxicity against African green monkey Vero cells after 72 hrs by MTT assay; type: cell-based; conditions: chlorocebus sabaeus, read-out: CD50
[4] = Cytotoxicity against human A549 cells after 72 hrs by MTT assay; type: cell-based; conditions: read-out: CD50
[5] = tested on: Mycobacterium tuberculosis; assay: Bacteriostatic activity against Mycobacterium tuberculosis H37Rv assessed as growth inhibition at 200 ug/mL relative to control; type: functional; conditions: read-out: GI
[6] = tested on: Mycobacterium tuberculosis; assay: Bacteriostatic activity against Mycobacterium tuberculosis H37Rv assessed as growth inhibition at 20 ug/mL relative to control; type: functional; conditions: read-out: GI
[7] = tested on: Mycobacterium tuberculosis; assay: Bacteriostatic activity against Mycobacterium tuberculosis H37Rv assessed as growth inhibition at 10 ug/mL relative to control; type: functional; conditions: read-out: GI
[8] = tested on: Mycobacterium tuberculosis; assay: Bacteriostatic activity against Mycobacterium tuberculosis H37Rv assessed as growth inhibition at 5 ug/mL relative to control; type: functional; conditions: read-out: GI
[9] = tested on: Mycobacterium tuberculosis; assay: Bacteriostatic activity against Mycobacterium tuberculosis H37Rv assessed as growth inhibition at 50 ug/mL relative to control; type: functional; conditions: read-out: GI
[10] = tested on: Mycobacterium tuberculosis; assay: Bacteriostatic activity against Mycobacterium tuberculosis H37Rv assessed as growth inhibition at 100 ug/mL relative to control; type: functional; conditions: read-out: GI
Aspergillus niger = assay: Antifungal activity against Aspergillus niger INA 00760; type: functional, organism-based
Saccharomyces cerevisiae = assay: Antifungal activity against Saccharomyces cerevisiae RIA 259; type: functional, organism-based
Bacillus subtilis = assay: Antibacterial activity against Bacillus subtilis ATCC 6633; type: functional, organism-based
Pseudomonas aeruginosa = assay: Antibacterial activity against Pseudomonas aeruginosa ATCC 27853; type: functional, organism-based
[11] = tested on: Leuconostoc mesenteroides; assay: Antibacterial activity against vancomycin-resistant Leuconostoc mesenteroides VKPM B-4177; type: functional
Escherichia coli = assay: Antibacterial activity against Escherichia coli ATCC 25922; type: functional, organism-based
Staphylococcus aureus [12] = assay: Antibacterial activity against methicillin-resistant Staphylococcus aureus INA 00761; type: functional, organism-based
Micrococcus luteus = assay: Antibacterial activity against Micrococcus luteus NCTC 8340; type: functional, organism-based
Bacillus pumilus = assay: Antibacterial activity against Bacillus pumilus NCTC 8241; type: functional, organism-based
Staphylococcus aureus [13] = assay: Antibacterial activity against methicillin-susceptible Staphylococcus aureus FDA 209P; type: functional, organism-based
Bacillus mycoides = assay: Antibacterial activity against Bacillus mycoides 537; type: functional, organism-based
[14] = tested on: Leuconostoc mesenteroides; assay: Antibacterial activity against vancomycin-resistant Leuconostoc mesenteroides VKPM B-4177 at 95 ug/mL; type: functional
[15] = tested on: Mycobacterium tuberculosis; assay: Bacteriostatic activity against Mycobacterium tuberculosis H37Rv assessed as growth inhibition at 40 ug/mL relative to control; type: functional; conditions: read-out: GI

Structure (SMILES)	CC50 at 72 h [1] [µg/mL]	MIC99 [2] [µg/mL]	CC50 at 72 h [3] [µg/mL]	CC50 at 72 h [4] [µg/mL]	inhibition of growth at 20 µg/mL [6] [%]	inhibition of growth at 10 µg/mL [7] [%]	inhibition of growth at 5 µg/mL [8] [%]	other results
CCCCCCCCCCCCOCc1cn([C@H]2C[C@H](N=[N+]=[N-])[C@@H](CO)O2)c(=O)[nH]c1=O	8 (≈ 17.7 µM)	200 (≈ 443 µM)	15 (≈ 33.2 µM)	10 (≈ 22.1 µM)	–	–	–	inhibition of growth at 200 µg/mL [5]: 100%
CCCCCCCCCCCCOCc1cn([C@H]2C[C@H](N)[C@@H](CO)O2)c(=O)[nH]c1=O	7 (≈ 16.4 µM)	> 20	50 (≈ 117 µM)	8 (≈ 18.8 µM)	90	25	–	–
CCCCCCCCCCCCOCc1cn([C@H]2C[C@H](NCC)[C@@H](CO)O2)c(=O)[nH]c1=O	5 (≈ 11 µM)	10 (≈ 22 µM)	13 (≈ 28.7 µM)	5 (≈ 11 µM)	100	99	75	inhibition of growth at 50 µg/mL [9]: 100%; inhibition of growth at 100 µg/mL [10]: 100%
CCCCCCCCCCCCc1cn(Cc2cn([C@H]3C[C@H](O)[C@@H](CO)O3)c(=O)nc2N)nn1	100 (≈ 210 µM)	10 (≈ 21 µM)	> 100	100 (≈ 210 µM)	100	99	75	–
CCCCCCCCCCc1cn(Cc2cn([C@H]3C[C@H](O)[C@@H](CO)O3)c(=O)[nH]c2=O)nn1	100 (≈ 222 µM)	10 (≈ 22.2 µM)	> 100	100 (≈ 222 µM)	–	100	90	Activity (Aspergillus niger): inactive; Activity (Saccharomyces cerevisiae): inactive; Activity (Bacillus subtilis): inactive; Activity (Pseudomonas aeruginosa): inactive; Activity [11]: inactive; Activity (Escherichia coli): inactive; Activity (Staphylococcus aureus [12]): inactive; Activity (Micrococcus luteus): inactive; Activity (Bacillus pumilus): inactive; Activity (Staphylococcus aureus [13]): inactive; Activity (Bacillus mycoides): inactive
CCCCCCCCCCCCOCc1cn([C@@H]2C[C@H](O)[C@@H](CO)O2)c(=O)[nH]c1=O	40 (≈ 93.8 µM)	20 (≈ 46.9 µM)	> 100	45 (≈ 105 µM)	99	90	–	Activity (Aspergillus niger): inactive; Activity (Saccharomyces cerevisiae): inactive; Activity (Bacillus subtilis): inactive; Activity (Pseudomonas aeruginosa): inactive; Activity [11]: inactive; Activity (Escherichia coli): inactive; Activity (Staphylococcus aureus [12]): inactive; Activity [14]: Active; inhibition of growth at 50 µg/mL [9]: 100%; Activity (Micrococcus luteus): inactive; Activity (Bacillus pumilus): inactive; Activity (Staphylococcus aureus [13]): inactive; inhibition of growth at 100 µg/mL [10]: 100%; Activity (Bacillus mycoides): inactive
CCCCCCCCCCCCCCOCc1cn([C@H]2C[C@H](O)[C@@H](CO)O2)c(=O)[nH]c1=O	–	200 (≈ 440 µM)	> 100	–	–	–	–	inhibition of growth at 200 µg/mL [5]: 100%
CCCCCCCCCCCCOCc1cn([C@H]2C[C@H](O)[C@@H](CN=[N+]=[N-])O2)c(=O)[nH]c1=O	18 (≈ 39.9 µM)	10 (≈ 22.1 µM)	> 100	20 (≈ 44.3 µM)	100	99	75	inhibition of growth at 50 µg/mL [9]: 100%; inhibition of growth at 100 µg/mL [10]: 100%
CCCCCCCCCCc1cn(Cc2cn([C@H]3C[C@H](O)[C@@H](CO)O3)c(=O)nc2N)nn1	100 (≈ 223 µM)	40 (≈ 89.2 µM)	> 100	100 (≈ 223 µM)	90	–	–	inhibition of growth at 40 µg/mL [15]: 100%
CCCCCCCCCCCCOCc1cn([C@H]2C[C@H](O)[C@@H](CO)O2)c(=O)nc1N	37 (≈ 86.9 µM)	200 (≈ 470 µM)	> 100	45 (≈ 106 µM)	–	–	–	inhibition of growth at 200 µg/mL [5]: 100%
CCCCCCCCc1cn(Cc2cn([C@H]3C[C@H](O)[C@@H](CO)O3)c(=O)nc2N)nn1	> 100	40 (≈ 95.1 µM)	> 100	> 100	90	–	–	inhibition of growth at 40 µg/mL [15]: 100%
